Source: patent publication US20250143990A1, “SKIN MICROBIOME FRIENDLY SUNSCREENS” (BASF SE, priority 2022, published 2025)

Test: Solubility in water
Assay type: physicochemical

- solubility in water: ng/L range
SMILES: CC(C)(C)CC(C)(C)c1cc(Cc2cc(C(C)(C)CC(C)(C)C)cc(-n3nc4ccccc4n3)c2O)c(O)c(-n2nc3ccccc3n2)c1 [2,2′-methylene bis[6-(2H-benzotriazol-2-yl)-4-(1,1,3,3-tetramethylbutyl)phenol]]
